Source: patent US6610289B2, “Mutated herpes simplex virus type 1 thymidine kinases and uses thereof” (The Board of Trustees of the University of Arkansas, priority 1998, dated 2003)

What was measured:
HCT-116 cells = experiment: Clonal dilution assay for GCV sensitivity; assay type: cell-based, human; conditions: for Decrease in cell colony numbers: 24 hours, FIG. 4
Experimental: Parental HCT-116 (large square), wild-type HSV-1 TK cells (triangle), Asn-125TK cells (small square) and Glu-125TK cells (diamond) were treated with 0, 0.1, 1 or 10 μM GCV in triplicate for 24 hours. After this time, each well of cells was sequentially diluted from 1:10 to 1:10,000 in 1 ml of fresh media on a separate 24 well plate. After 7 days, surviving cell colonies were fixed in 100% methanol, stained with 0.1% methylene blue and counted.
For determination of GCV sensitivity, parental HCT-116 and each HSV-1 TK expressing cells were seeded in 24 well plates (2×10^5/well) in 1 ml of media. The next day, 0, 0.1, 1 or 10 μM GCV was added to each cell line in triplicate. After 24 hours, for each well the media was removed, cells were rinsed twice in fresh media, trypsinized, then media was added to 1 ml per well. Each well of cells was then sequentially diluted from 1:10 to 1:10,000 in 1 ml of fresh media on a separate 24 well plate. After 7 days, surviving cell colonies were fixed in 100% methanol, stained with 0.1% methylene blue and counted. For bystander effect assays, each of the three HSV-1 TK expressing cell lines were plated with parental HCT-116 cells (total 2×10^5/well) in the following proportions: (parental: HSV-1TK cells) 100%:0; 95%:5%; 90%:10%; 75%:25%; 50%:50% and 0:100%. After two days, 25 μM GCV was added in 1 ml fresh media. After 24 hrs, the media was removed and cells from each well were diluted from 1:10 to 1:10,000 as described above. After 7 days, surviving cell colonies were fixed and stained for counting.
Cells previously plated in 24 well plates were treated with GCV (0-10 μM) in triplicate for 24 hours. Following drug removal, cells were diluted and replated in fresh media from dilutions of 1:10 to 1:10,000. Surviving cell colonies were counted 6-7 days later.

NIH3T3 cells = experiment: MTT cell viability, sensitivity to GCV killing, NIH3T3 cell lines expressing HSV-1 TKs; assay type: cell-based, murine; conditions: NIH3T3, GCV 0-5 μM, 4 days, FIG. 3A
Experimental: Cells were plated in triplicate and exposed to 0, 0.05, 0.5 or 5 μM GCV for four days. Cell viabilities were determined using MTT dye. […] FIG. 3A: NIH3T3 cell lines, FIG. 3B: HCT-116 cell lines; parental cells (noTK, dark bands); Asp125TK (Asp-#, brick band); Glu-125TK (Glu-#, cross-hatch bands); Asn-125TK (Asn-#, gray bands); wild-type HSV-1 TK (WT-#, striped bands).
A Moloney murine leukemia virus derived plasmid for the expression of HSV-TK, termed pLENTK, has been previously constructed (24). A unique BspEI-MluI restriction fragment within the HSV-TK sequence of pLENTK contains the Gln-125 mutation site. This fragment was removed from wild-type plasmid and replaced with the analogous fragments encoding each mutant. […] Along with wild-type HSV-1 TK plasmid, each mutant-TK plasmid was transfected individually into the murine fibroblast cell line, NIH 3T3, and the human colon tumor cell line, HCT-116, using lipofectin reagent (GIBCO/BRL) (2 μg plasmid, 14 μl lipid per 1×10^6 cells). Cells were maintained in RPMI 1640 media and selected with G418 (200 μg/ml for 2 weeks) as previously described (24). At least eight individual G418 resistant cell clones were picked and grown up for further characterization. Each clone was screened initially for growth inhibition by 25 μM GCV. Those clones that were sensitive were further analyzed for HSV-TK protein expression by Western blot analysis with a polyclonal, rabbit anti-HSV-TK antibody (a gift from Dr. Margaret Black). […] After 4 days, MTT ([…]) was added for 1.5 hours, followed by DMSO solubilization of the cells and absorbance reading at 540 nm (25).
cDNA for each mutant was incorporated into a Moloney murine leukemia virus plasmid (24). […] Following drug selection in G418, individual cell clones were evaluated for sensitivity to GCV and relative levels of HSV-1 TK expression. Using an HSV-1 TK antibody and extracts normalized by protein and cell number, the relative expression levels of HSV-1 TK in each cell clone were determined.

| Substance | Decrease in cell colony numbers (HCT-116 cells; 0.1 μM GCV) | Decrease in cell colony numbers (HCT-116 cells; 10 μM GCV) | Dose dependent cell killing by GCV (cell viability, MTT) (NIH3T3 cells) | Decrease in cell colony numbers (HCT-116 cells; 1 μM GCV) | Reduction in cell colony numbers (HCT-116 cells; 20-110 μM GCV (data not shown)) |
| --- | --- | --- | --- | --- | --- |
| Asn-125 | 2 log | 4 log | proportionally more cell killing | – | – |
| Gln-125 (WT): wild-type herpes simplex virus type 1 thymidine kinase with glutamine at position 125, parent enzyme [reference compound] | 2 log | 4 log | proportionally more cell killing | – | – |
| Glu-125 | no reduction | 2.5 log | minimal cell killing | 0.7 log | over 3 log |
